# PMC12866823, “The Pivotal Role of GR‐CAR Pathway in Fetal Programming of Hepatic Cytochrome P450 3A Alteration in Adulthood” (Advanced Science, 2025)
# What was measured:
# HepG2 = assay: Treatment of HepG2 with hydrocortisone; type: cell-based, human
# Protocol: (§1) Cells and liver samples were subjected to RNA isolation using a TRIZOL reagent. Process of RNA extraction and cDNA preparation was according to our prior work.^[ [103] ^] qPCR was performed using the Cham Q TM Universal SYBR® qPCR Master Mix on the QuantStudio®5 Real‐Time PCR System (Thermo Scientific, Waltham, MA, USA) for detection. All primers are listed in Table S2 (Supporting Information). Target gene expression was standardized using housekeeping gene and computed using the 2^−ΔΔCt methodology. For the gene expression levels assayed in each tissue of fetal mice, n indicates a litter (with each n ranging from 11‐12).
# (§2) Total protein was extracted from the liver and cells using RIPA lysis buffer, and protein concentration was determined using a bicinchoninic acid (BCA) assay. Nuclear proteins were extracted using the Nuclear Protein Extraction Kit (no. P0028, Beyotime Institute of Biotechnology, Shanghai, China).^[ [104] ^] To verify the purity of extracted cellular fractions, we examined the levels of cytoplasmic localization proteins (ACTB and GAPDH) and nuclear localization protein (H3) in cytoplasmic and nuclear samples, respectively. […] Details of the western blot procedure have been described previously.^[ [105] ^] […] Results were quantified using Image J Launcher. […]
# LS174T = assay: Treatment of LS174T with hydrocortisone; type: cell-based, human
# Protocol: as §1, §2
# [1] = system: bone marrow mesenchymal stem cells hepatoid differentiated cell (BHDC); assay: Treatment of BHDC: mRNA, protein, ChIP-PCR and CoIP readouts; type: cell-based, rat; details: for interaction between GR and P300/CBP (co-immunoprecipitation): 500 x 10^-9 M DEX or 1200 x 10^-9 M CORT; for gene and protein expression of P300/CBP, binding of GR-P300/CBP to CAR promoter, acetylation levels of H3K9 and H3K27: dose-dependent
# Protocol: Protocols for preparing BMSCs and the hepatoid‐differentiated cells (BHDCs) were based on our prior study.^[ [98] ^] BMSCs were harvested from PW3 male rats and cultured at a density of 4 × 10^5 cells per well in six‐well plates with growth medium (αMEM with 10% fetal bovine serum (FBS), […] streptomycin, and 100 U mL^−1 penicillin).
# All primers are listed in Table S2 (Supporting Information).
# Results were quantified using Image J Launcher.
# Cells were cross‐linked with 1% formaldehyde at room temperature, and glycine (final concentration 125 × 10^−3 M) was added to terminate the reaction.^[ [105] ^] The suspensions were sonicated to obtain 200‐800 bp DNA fragments, and then were incubated with Agarose‐protein A/G beads and divided into multiple portions. Corresponding antibodies (H3K9ac, H3K14ac, H3K27ac, H3K4me2, H3K27me3, GR, and CAR) and IgG were added and shaken overnight at 4 °C for immunoprecipitation, followed by the addition of 200 µg mL^−1 proteinase K at 65 °C overnight. DNA was isolated from each immunoprecipitation and subjected to RT‐qPCR analysis. The Jaspar database was consulted to query gene transcription binding sites.^[ [107] ^] Primers for amplification of multiple regions of the CAR promoter were designed using the UCSC Genome Browser (http://genome.ucsc.edu/) and Primer 3 Input Browser (http://primer3.ut.ee/). The primer sequences are listed in Table S4 (Supporting Information). Data from RT‐qPCR were used to calculate the abundance of proteins enriched in the promoters of each gene using the following formula: IP/input = 100 × 2^Ct input DNA – Ct IP DNA.
# Tissue and cell lysates were collected, and protein concentrations were quantified using a BCA protein quantification kit. Protein A agarose gel beads (20 to 40 µL) were washed 2 to 3 times with lysis buffer and centrifuged at 3000 rpm for 5 min each time. Between 500 and 1000 µL of homogenized lysis supernatant from tissues or cells were transferred to a clean EP tube, and 1–10 µL of specific primary antibody was added to incubate overnight at 4 °C. IgG from the same species served as a negative control. Subsequently, 20 µL of A/G agarose gel beads were added, and the mixture was incubated for 3‐4 h at 4 °C. After incubation, the sample was centrifuged at 1000 g for 5 min at 4 °C to collect the immunoprecipitated complexes; the mixture was then washed 3‐4 times with 1 mL ice‐cold IP lysate (without protease inhibitor) by centrifugation at 3000 g for 5 min. Following the final wash, 40 µL of 1 × SDS loading buffer containing mercaptoethanol was added, boiled for 10 min at 100 °C, centrifuged at 1000 g for 5 min at 4 °C, and 15–20 µL of supernatant was used for WB assay.
# GR = assay: Dual-luciferase assay of transcriptional function of GR on CAR; type: cell-based, human; details: with DEX treatment
# Protocol: The dual‐luciferase reporter plasmid of pTol2‐cmv‐Fluc‐bGH polyA‐EF1α‐Rluc‐polyA was synthesized by Tsingke company and worked as a positive control. Overlapping PCR was performed to generate insert of the target gene promoter base on HepG2 genomic DNA template. Employing Hifi assembly kit, promoter fragments were inserted into SpeI/NtoI site of reporter vector, and coding sequences were inserted into XbaI/XhoI site of pTol2‐EGFP‐polyA plasmid. 48 h after transfection, cells were collected for dual‐luciferase assay according to Promega luciferase kit instructions. The primers for overlap PCR are listed in Table S5 (Supporting Information).
# [2] = system: rat fetal primary hepatocytes; assay: Treatment of rat fetal primary hepatocytes: mRNA and protein expression; type: cell-based; details: DEX 20-500 x 10^-9 M or CORT 300-1200 x 10^-9 M, concentration-dependent
# Protocol: as §1
# Total protein was extracted from the liver and cells using RIPA lysis buffer, and protein concentration was determined using a bicinchoninic acid (BCA) assay. Nuclear proteins were extracted using the Nuclear Protein Extraction Kit (no. P0028, Beyotime Institute of Biotechnology, Shanghai, China).^[ [104] ^] To verify the purity of extracted cellular fractions, we examined the levels of cytoplasmic localization proteins (ACTB and GAPDH) and nuclear localization protein (H3) in cytoplasmic and nuclear samples, respectively. […] Details of the western blot procedure have been described previously.^[ [105] ^] […] Results were quantified using Image J Launcher.
# [3] = 0, 300, 600, 1200 nM, concentration-dependent
# [4] = 500 x 10^-9 M DEX with 10 x 10^-6 M RU486 or 100 x 10^-9 M GR siRNA
# [5] = DEX 20-500 x 10^-9 M or CORT 300-1200 x 10^-9 M
smiles,measurement,setting,value
C[C@]12CCC(=O)C=C1CC[C@@H]1[C@@H]2[C@@H](O)C[C@@]2(C)[C@H]1CC[C@]2(O)C(=O)CO [hydrocortisone],expression of downstream genes,HepG2; [3],could significantly induce the expression of downstream genes
same,related indicators and nuclear translocation of GR and CAR,HepG2; 1200 x 10^-9 M,significantly increased
same,expression of downstream genes,LS174T; [3],could significantly induce the expression of downstream genes
same,related indicators and nuclear translocation of GR and CAR,LS174T; 1200 x 10^-9 M,significantly increased
"C=C1[C@@H](O)[C@@H]2O[C@]3(CC[C@H](/C=C/[C@@H](C)[C@@H]4CC(C)=C[C@@]5(O[C@H](C[C@@](C)(O)C(=O)O)CC[C@H]5O)O4)O3)CC[C@H]2O[C@@H]1[C@@H](O)C[C@H](C)[C@H]1O[C@@]2(CCCCO2)CC[C@H]1C [OA, okadaic acid]",effect on DEX-enhanced total and nuclear protein levels of CAR,[1]; 10 x 10^-9 M OA with DEX,reversed
same,expression of downstream CYP3A and CYP2B,[1]; 10 x 10^-9 M OA with or without DEX,significantly reduced the expression of downstream CYP3A and CYP2B with or without DEX incubation
"CC#C[C@]1(O)CC[C@H]2[C@@H]3CCC4=CC(=O)CCC4=C3[C@@H](c3ccc(N(C)C)cc3)C[C@@]21C [RU486, mifepristone]",effect on GR protein nuclear translocation and CYPs expression induced by DEX,[1]; 10 x 10^-6 M with 500 x 10^-9 M DEX,significantly inhibited protein nuclear translocation of GR and expression of CYPs induced by DEX treatment
same,effect on CAR induction by DEX,[1]; [4],suppressed
same,"effect on DEX induction of P300/CBP expression, P300/CBP binding to CAR promoter and H3K9/H3K27 acetylation",[1]; [4],"reversed the induction of P300/CBP expression, the binding of P300/CBP to the CAR promoter, and the acetylation levels of H3K9 and H3K27 by DEX"
same,effect on transcriptional activity of GR (on CAR) induced by DEX,GR,blocked transcriptional activity of GR induced by DEX
"C[C@@H]1C[C@H]2[C@@H]3CCC4=CC(=O)C=C[C@]4(C)[C@@]3(F)[C@@H](O)C[C@]2(C)[C@@]1(O)C(=O)CO [DEX, dexamethasone]",interaction between GR and P300/CBP (co-immunoprecipitation),[1],significantly enhanced
same,"gene and protein expression of P300/CBP, binding of GR-P300/CBP to CAR promoter, acetylation levels of H3K9 and H3K27",[1]; [5],significantly induced
"C[C@]12C[C@H](O)[C@H]3[C@@H](CCC4=CC(=O)CC[C@@]43C)[C@@H]1CC[C@@H]2C(=O)CO [CORT, corticosterone]",interaction between GR and P300/CBP (co-immunoprecipitation),[1],significantly enhanced
same,"CYP3A and CYP2B expression, gene and protein levels","[1]; DEX 20-500 x 10^-9 M or CORT 300-1200 x 10^-9 M, 24 h, concentration-dependent",significantly induced CYP3A and CYP2B expression at both the gene and protein levels
same,"gene and protein expression of P300/CBP, binding of GR-P300/CBP to CAR promoter, acetylation levels of H3K9 and H3K27",[1]; [5],significantly induced
same,"CYP3A and CYP2B expression, gene and protein levels",[2],significantly induced CYP3A and CYP2B expression at both the gene and protein levels
